{"source": "patent EP3721896B1", "about": "“EPIDERMAL GROWTH FACTOR (EGF) AND VARIANTS THEREOF FOR TREATING OR PREVENTING INFLAMMATORY DEMYELINATING DISORDERS” (Scalabrino, Giuseppe, priority 2019, dated 2023)", "origin": "cited, not measured here", "system": "experimental autoimmune encephalomyelitis (EAE)", "settings": "administered alone; Lewis rat; from EP1870106A2", "data": [{"substance": "GHRP-6", "values": [{"measurement": "Effect on course of EAE as compared to placebo", "value": "no effect was observed"}]}]}
